From patent publication US6989371B1, “Bombesin analogs for treatment of cancer” (Dabur Research Foundation, priority 1996, dated 2006)
Non-standard residues stand in square brackets, D forms with d. Residues, ends and D or L forms follow the SMILES beside them. Aib = CC(C)(N)C(=O)O

Key:
Test in all cases: MTT cytotoxicity assay, 72 hours (Example 13)
Type in all cases: cell-based, human
SW620 (colon) = tested on: SW620 (colon)
Method: (§1) The cytotoxic activity of other synthesized bombesin analogs was tested on eight human tumor cell lines namely HT-29, SW620, PTC (all colon), PA-1 (ovary), A549 (lung), HBL100(breast), MOLT-4 (leukemia) and DU145 (prostate). The tumor cells were collected at exponential growth phase and resuspended in medium (1.5×10^6) cells/ml in RPMI 1640 containing 10% FBS). 150 μl of medium was added to the wells of a 96-well tissue culture plate (Nunc, Denmark) followed by 30 μl of cell suspension. The plate was left in incubator (37° C., 5% CO2 overnight. 20 μl of the peptide (10^−7×10^×10M concentration) was added to marked wells of the 96-well plate. Each concentration was plated in cells served as blanks. A total volume of 200 μl was ensured in each well and plate was left in incubator (37° C., 5% CO2). After 72 hours of incubation an MTT assay was performed and percentage cytotoxicity was calculated with respect to control cells. Following tables show the cytotoxicity achieved on various cell lines at different concentrations.

HT-29 (colon) = tested on: HT-29 (colon)
Method: as §1

HBL100 (breast) = details: HBL
Method: as §1

PA-1 (ovary) = tested on: PA-1 (ovary)
Method: as §1

MOLT-4 (leukemia) = tested on: MOLT-4 (leukemia)
Method: as §1

DU145 (prostate) = tested on: DU145 (prostate)
Method: as §1

PTC (colon) = tested on: PTC (colon)
Method: as §1

A549 (lung) = tested on: A549 (lung)
Method: as §1

CC(C)C[C@H](NC(=O)[C@H](Cc1c[nH]cn1)NC(=O)C(C)(C)NC(=O)[C@@H](NC(=O)[C@H](C)NC(=O)[C@@H](Cc1c[nH]c2ccccc12)NC(=O)[C@H](CCC(N)=O)NC(=O)[C@H](N)Cc1ccccc1)C(C)C)C(N)=O [SEQ ID: 5, D-Phe-Gln-D-Trp-Ala-Val-Aib-His-Leu-NH2] (H-[dF]Q[dW]AV[Aib]HL-NH2; N-terminus assumed)
Percent Cytotoxicity (SW620 (colon); SW620, 1 nM): 29.7 ± 4.2%
Percent Cytotoxicity (SW620 (colon); SW620, 10 nM): 30.1 ± 4.0%
Percent Cytotoxicity (SW620 (colon); SW620, 100 nM): 25.6 ± 4.2%
Percent Cytotoxicity (SW620 (colon); SW620, 100 PM): 38.0 ± 3.8%
Percent Cytotoxicity (HT-29 (colon); HT29, 1 nM): 27.9 ± 2.9%
Percent Cytotoxicity (HT-29 (colon); HT29, 10 nM): 44.4 ± 4.0%
Percent Cytotoxicity (HT-29 (colon); HT29, 100 nM): 35.7 ± 2.8%
Percent Cytotoxicity (HT-29 (colon); HT29, 100 PM): 42.0 ± 2.0%
Percent Cytotoxicity (HBL100 (breast); 1 nM): 31.6 ± 5.3%
Percent Cytotoxicity (HBL100 (breast); 10 nM): 16.7 ± 3.6%
Percent Cytotoxicity (HBL100 (breast); 100 nM): 19.4 ± 4.5%
Percent Cytotoxicity (HBL100 (breast); 100 PM): 19.3 ± 2.7%
Percent Cytotoxicity (PA-1 (ovary); PA-1, 1 nM): 16.0 ± 3.9%
Percent Cytotoxicity (PA-1 (ovary); PA-1, 10 nM): 20.9 ± 5.3%
Percent Cytotoxicity (PA-1 (ovary); PA-1, 100 nM): 8.8 ± 1.9%
Percent Cytotoxicity (PA-1 (ovary); PA-1, 100 PM): 25.6 ± 6.3%
Percent Cytotoxicity (MOLT-4 (leukemia); MOLT4, 1 nM): 6.4 ± 0.2%
Percent Cytotoxicity (MOLT-4 (leukemia); MOLT4, 10 nM): 4.3 ± 0.6%
Percent Cytotoxicity (MOLT-4 (leukemia); MOLT4, 100 nM): NIL
Percent Cytotoxicity (MOLT-4 (leukemia); MOLT4, 100 PM): 8.7 ± 0.6%
Percent Cytotoxicity (DU145 (prostate); DU145, 1 nM): 10.6 ± 0.9%
Percent Cytotoxicity (DU145 (prostate); DU145, 10 nM): 22.0 ± 3.4%
Percent Cytotoxicity (DU145 (prostate); DU145, 100 nM): 32.3 ± 3.8%
Percent Cytotoxicity (DU145 (prostate); DU145, 100 PM): 29.3 ± 2.9%
Percent Cytotoxicity (PTC (colon); 1 nM): 23.0 ± 4.2%
Percent Cytotoxicity (PTC (colon); 10 nM): 15.9 ± 2.4%
Percent Cytotoxicity (PTC (colon); 100 nM): 20.4 ± 4.2%
Percent Cytotoxicity (PTC (colon); 100 PM): 13.9 ± 2.2%
Percent Cytotoxicity (A549 (lung); A549, 1 nM): 20.2 ± 4.2%
Percent Cytotoxicity (A549 (lung); A549, 10 nM): 22.2 ± 3.1%
Percent Cytotoxicity (A549 (lung); A549, 100 nM): 30.3 ± 4.3%
Percent Cytotoxicity (A549 (lung); A549, 100 PM): 25.2 ± 5.6%

CC(C)C[C@H](NC(=O)[C@H](Cc1c[nH]cn1)NC(=O)CNC(=O)[C@@H](NC(=O)C(C)(C)NC(=O)[C@H](Cc1c[nH]c2ccccc12)NC(=O)[C@H](CCC(N)=O)NC(=O)[C@H](N)Cc1ccccc1)C(C)C)C(N)=O [SEQ ID: 4, D-Phe-Gln-Trp-Aib-Val-Gly-His-Leu-NH2] (H-[dF]QW[Aib]VGHL-NH2; N-terminus assumed)
Percent Cytotoxicity (SW620 (colon); SW620, 1 nM): 27.8 ± 2.8%
Percent Cytotoxicity (SW620 (colon); SW620, 10 nM): 23.2 ± 2.0%
Percent Cytotoxicity (SW620 (colon); SW620, 100 nM): 34.3 ± 4.2%
Percent Cytotoxicity (SW620 (colon); SW620, 100 PM): 30.4 ± 3.2%
Percent Cytotoxicity (HT-29 (colon); HT29, 1 nM): 39.6 ± 4.3%
Percent Cytotoxicity (HT-29 (colon); HT29, 10 nM): 38.9 ± 7.3%
Percent Cytotoxicity (HT-29 (colon); HT29, 100 nM): 38.6 ± 5.3%
Percent Cytotoxicity (HT-29 (colon); HT29, 100 PM): 43.3 ± 4.4%
Percent Cytotoxicity (HBL100 (breast); 1 nM): 30.6 ± 4.2%
Percent Cytotoxicity (HBL100 (breast); 10 nM): 33.2 ± 5.2%
Percent Cytotoxicity (HBL100 (breast); 100 nM): 25.0 ± 3.1%
Percent Cytotoxicity (HBL100 (breast); 100 PM): 33.0 ± 3.6%
Percent Cytotoxicity (PA-1 (ovary); PA-1, 1 nM): 16.2 ± 2.9%
Percent Cytotoxicity (PA-1 (ovary); PA-1, 10 nM): 4.3 ± 0.2%
Percent Cytotoxicity (PA-1 (ovary); PA-1, 100 nM): 2.3 ± 2.9%
Percent Cytotoxicity (PA-1 (ovary); PA-1, 100 PM): 12.6 ± 2.9%
Percent Cytotoxicity (MOLT-4 (leukemia); MOLT4, 1 nM): 19.3 ± 1.8%
Percent Cytotoxicity (MOLT-4 (leukemia); MOLT4, 10 nM): 28.7 ± 4.2%
Percent Cytotoxicity (MOLT-4 (leukemia); MOLT4, 100 nM): 16.2 ± 0.6%
Percent Cytotoxicity (MOLT-4 (leukemia); MOLT4, 100 PM): 28.5 ± 4.8%
Percent Cytotoxicity (DU145 (prostate); DU145, 1 nM): 22.8 ± 4.1%
Percent Cytotoxicity (DU145 (prostate); DU145, 10 nM): 23.4 ± 3.3%
Percent Cytotoxicity (DU145 (prostate); DU145, 100 nM): 24.9 ± 3.2%
Percent Cytotoxicity (DU145 (prostate); DU145, 100 PM): 23.2 ± 3.7%
Percent Cytotoxicity (PTC (colon); 1 nM): 8.7 ± 1.5%
Percent Cytotoxicity (PTC (colon); 10 nM): 2.1 ± 0.2%
Percent Cytotoxicity (PTC (colon); 100 nM): 9.8 ± 1.7%
Percent Cytotoxicity (PTC (colon); 100 PM): 14.9 ± 1.1%
Percent Cytotoxicity (A549 (lung); A549, 1 nM): 22.7 ± 2.9%
Percent Cytotoxicity (A549 (lung); A549, 10 nM): 20.6 ± 1.9%
Percent Cytotoxicity (A549 (lung); A549, 100 nM): 20.0 ± 2.2%
Percent Cytotoxicity (A549 (lung); A549, 100 PM): 20.7 ± 4.2%

CCCC(CCC)(NC(=O)[C@@H](NC(=O)[C@H](C)NC(=O)[C@@H](Cc1c[nH]c2ccccc12)NC(=O)[C@H](CCC(N)=O)NC(=O)[C@H](N)Cc1ccccc1)C(C)C)C(=O)N[C@@H](Cc1c[nH]cn1)C(=O)N[C@@H](CC(C)C)C(N)=O [SEQ ID: 8, D-Phe-Gln-D-Trp-Ala-Val-Dpg-His-Leu-NH2]
Percent Cytotoxicity (SW620 (colon); SW620, 1 nM): 20.6 ± 3.9%
Percent Cytotoxicity (SW620 (colon); SW620, 10 nM): 33.0 ± 3.8%
Percent Cytotoxicity (SW620 (colon); SW620, 100 nM): 29.4 ± 2.9%
Percent Cytotoxicity (SW620 (colon); SW620, 100 PM): 20.6 ± 3.9%
Percent Cytotoxicity (HT-29 (colon); HT29, 1 nM): 34.7 ± 3.3%
Percent Cytotoxicity (HT-29 (colon); HT29, 10 nM): 18.9 ± 4.2%
Percent Cytotoxicity (HT-29 (colon); HT29, 100 nM): 34.8 ± 4.2%
Percent Cytotoxicity (HT-29 (colon); HT29, 100 PM): 21.4 ± 3.1%
Percent Cytotoxicity (HBL100 (breast); 1 nM): 12.2 ± 1.9%
Percent Cytotoxicity (HBL100 (breast); 10 nM): 14.4 ± 2.1%
Percent Cytotoxicity (HBL100 (breast); 100 nM): 11.9 ± 2.1%
Percent Cytotoxicity (HBL100 (breast); 100 PM): 12.1 ± 1.9%
Percent Cytotoxicity (PA-1 (ovary); PA-1, 1 nM): 23.8 ± 4.2%
Percent Cytotoxicity (PA-1 (ovary); PA-1, 10 nM): 20.4 ± 3.0%
Percent Cytotoxicity (PA-1 (ovary); PA-1, 100 nM): 10.4 ± 3.7%
Percent Cytotoxicity (PA-1 (ovary); PA-1, 100 PM): 23.3 ± 5.5%
Percent Cytotoxicity (MOLT-4 (leukemia); MOLT4, 1 nM): 9.3 ± 0.2%
Percent Cytotoxicity (MOLT-4 (leukemia); MOLT4, 10 nM): 12.8 ± 3.3%
Percent Cytotoxicity (MOLT-4 (leukemia); MOLT4, 100 nM): 2.6 ± 0.1%
Percent Cytotoxicity (MOLT-4 (leukemia); MOLT4, 100 PM): 16.6 ± 3.1%
Percent Cytotoxicity (DU145 (prostate); DU145, 1 nM): 21.4 ± 6.2%
Percent Cytotoxicity (DU145 (prostate); DU145, 10 nM): 22.5 ± 2.2%
Percent Cytotoxicity (DU145 (prostate); DU145, 100 nM): 19.1 ± 2.1%
Percent Cytotoxicity (DU145 (prostate); DU145, 100 PM): 28.1 ± 3.5%
Percent Cytotoxicity (PTC (colon); 1 nM): 12.5 ± 1.7%
Percent Cytotoxicity (PTC (colon); 10 nM): 5.4 ± 1.7%
Percent Cytotoxicity (PTC (colon); 100 nM): 8.7 ± 2.1%
Percent Cytotoxicity (PTC (colon); 100 PM): 12.3 ± 1.9%
Percent Cytotoxicity (A549 (lung); A549, 1 nM): 19.7 ± 3.1%
Percent Cytotoxicity (A549 (lung); A549, 10 nM): 20.7 ± 2.2%
Percent Cytotoxicity (A549 (lung); A549, 100 nM): 21.7 ± 3.3%
Percent Cytotoxicity (A549 (lung); A549, 100 PM): 17.0 ± 2.7%
